For data set [1], the system named is KTC-ICR mice. The data set is described as follows: acetic acid induced writhing test (analgesic effect). Type of data set: in vivo. The settings on record: Mus musculus, ip; acetic acid induced writhing; 50% reduction of writhings vs control group; mice 20 to 25 g; read-out: ED50 acetic acid. As to the method: (§1) Physiological activities of the compounds obtained in Examples 1 to 11 were measured by employing acetic acid or phenyl-1,4-benzoquinone(PBQ) induced writhing test.
(§2) The KTC-ICR mice provided by Experimental Animal Laboratory of Korea Research Institute of Chemical Technology were used as test animals. […] They were tested in a group consisting of 8 mice for each dosage of a test compound after having been adjusted to the testing environment for a week. Food and water were given freely; and illumination was maintained on a 12-hour cycle.
(§3) Test solutions were prepared by dissolving one of the final products obtained in Examples 1 to 11 in distilled water containing 1% of Tween and 5% ethanol in a pre-determined concentration. The test solutions were used after serial dilution depending on each dosage.
(§4) The test solutions were intraperitoneally administered in a dose of 0.1 ml per 10 g of a body weight. 0.1 ml of 1% acetic acid solution or 0.1 ml of 0.02% PBQ solution was administered after 60 minutes in case of oral administration or after 30 minutes in case of subcutaneous injection.
(§5) Then, the number of writhings generated during a period of 10 minutes after 3 minutes from the administration of acetic acid was measured. In case of the administration of PBQ, the number of writhings generated during a period of 5 minutes after 5 minutes from the administration was measured.
(§6) For a comparison purpose, initially, distilled water containing 1% of Tween and 5% ethanol alone was administered to the control group. Then, the control groups were subjected the same procedure as the test groups.
(§7) The number of writhings suffered by the test group was compared with that of the control group; and the analgesic effect was measured in terms of the percentage of inhibition of writhing(I. W.). [formula] wherein: A is the number of writhings suffered by the control group; and
(§8) B is the number of writhings suffered by the test group.
(§9) I.W. values for each dosage were calculated by employing regression analysis. The amount of a test compound which is required in reducing the frequency of writhings to the 50% level of that generated by the control group, i.e., B=0.5A or I.W.=50%, is designated as ED50 (mg/kg of a body weight). Therefore, a lower value of ED50 represents a higher analgesic effect of the tested compound.

The test system of data set [2] is KTC-ICR mice. The data set is described as follows: phenyl-1,4-benzoquinone (PBQ) induced writhing test (analgesic effect). Type of data set: in vivo. As to conditions: Mus musculus, ip; PBQ induced writhing; 50% reduction of writhings vs control group; mice 14 to 18 g; read-out: ED50 PBQ. As to the method: as §1, §2, §3, §4, §5, §6, §7, §8, §9
The test system of another data set is test animals. The data set is described as follows: toxicity test: behavioral changes in the test animals observed by the naked eye. Type of data set: in vivo, KTC-ICR mice. Set-up: key to Convulsion / Salivation / Urination: score; normal value 0, higher number = greater side effects. The settings on record: score; for Convulsion / Salivation / Urination: normal value 0; for Dyspnoea / Ptosis / Sedation / Vasodilation: normal value 4. As to the method: In order to monitor a harmful side-effect or toxicity of the present compounds, various behavioral changes in the test animals were observed. After the test and the control solutions were administered to the animals, symptoms such as sedation, ptosis, dyspnoea, vasodilation, convulsion, salivation and urination were observed by the naked eye and the level of such changes was represented by a numbering system: that is, the normal value of the last three behaviors(i.e., urination, convulsion and salivation) is 0; and that of the others(i.e., sedation, ptosis, dyspnoea and vasodilation) is 4. The higher the number is, the greater the side effects are.

As to `COc1cc(CC(=O)NCCCc2ccc(C)c(C)c2)ccc1OCCNCCO` [Example 2, N-{3-(3,4-dimethylphenyl)propyl}-4-[2-{N-(2-hydroxyethyl)}aminoethoxy]-3-methoxy phenylacetamide], the ED50 in the data set on KTC-ICR mice [1] was 0.3 mg/kg. Also, the ED50 in the data set on KTC-ICR mice [2] is 0.83 mg/kg. In the data set with test animals (Amount 0.25 mgg), this compound had a Convulsion of 0, a Salivation of 0, a Urination of 0 and a Dyspnoea of 4. For the same compound, in the data set on test animals (Amount 0.25 mgg), the Ptosis was 4, the Sedation is 4 and the Vasodilation was determined as 4. In addition, in the data set on test animals (Amount 0.5 mgg), the Convulsion stood at 0, the Salivation is on record as 0, the Urination was determined as 0 and the Dyspnoea is reported as 4. For the same compound, in the data set with test animals (Amount 0.5 mgg), the Ptosis came to 5, the Sedation is reported as 5 and the Vasodilation was 4. Also, in the data set with test animals (Amount 1 mgg), the Convulsion is given as 0, the Salivation amounted to 0, the Urination was 0 and the Dyspnoea stood at 5. Moreover, in the data set with test animals (Amount 1 mgg), the Ptosis is given as 6, the Sedation came out at 6 and the Vasodilation came out at 5.
